Data from patent publication EP1228058B1, “BENZOPYRANYL GUANIDINE DERIVATIVES, PROCESS FOR PREPARATION THEREOF, AND PHARMACEUTICAL COMPOSITIONS CONTAINING THEM” (Dongbu Hannong Chemical Co., Ltd., priority 1999, dated 2001).

test: Acute oral toxicity test in rats; conditions: rat, in vivo, single oral dose in 0.5% methyl cellulose, read-out: lethal dose (LD50) for oral administration
Procedure: In this test six-week old SPF SD rats were used with two rats assigned to each group. The compounds of examples 1, 2, 3, 5, 7, 8, 9, 10, 13, 14, 15, 19, 22, 23, 24, 25, 26, 28, 29, 30, 31, 32, 33, 34, 35, 36, 37, 38, 39, 40, 41, 44, 46, 47, 48, 49, 51, 52, 57, 58, 60, 62, 64, 67, 68, 69, 71 and 72 were suspended in 0.5% methyl cellulose, respectively, and administered orally at a single dose of 1 g/kg using a ball-tipped needle. The dosing volume was 10 ml/kg. […] All survivors at the end of the observation period underwent laparotomy under ether anesthesia and the blood samples were taken from the abdominal aorta for hematological tests and biochemical analysis. After sacrificing the animals, autopsy was performed for macroscopic observation of the organs and tissues. Tissue samples of vital organs from macroscopic legion were removed and fixed in 10% neutral buffered formalin solution, then processed by standard procedures for histopathology and examined under light microscope. There were no significant changes in clinical symptoms, body weight and mortalities. Also in hematology, serum chemistry parameters and macroscopic observation, no drug-related changes were observed.

Row | SMILES | LD50 [mg/kg]
1 | COC(OC)[C@]1(C)Oc2ccc([N+](=O)[O-])cc2[C@H](NC(=NC#N)Nc2ccc(Cl)cc2)[C@H]1O [Example 1, (2R, 3R, 4S)-N''-cyano-N-(6-nitro-3,4-dihydro-3-hydroxy-2-methyl-2-dimethoxymethyl-2H-benzopyran-4-yl)-N'-(4-chlorophenyl)guanidine] | > 1000
2 | COC(OC)[C@]1(C)Oc2ccc([N+](=O)[O-])cc2[C@H](NC(=NC#N)Nc2cccc(Cl)c2)[C@H]1O [Example 3, (2R, 3R, 4S)-N''-cyano-N-(6-nitro-3,4-dihydro-3-hydroxy-2-methyl-2-dimethoxymethyl-2H-benzopyran-4-yl)-N'-(3-chlorophenyl)guanidine] | > 1000
3 | COC(OC)[C@]1(C)Oc2ccc([N+](=O)[O-])cc2[C@H](NC(=NC#N)Nc2ccc([N+](=O)[O-])cc2)[C@H]1O [Example 5, (2R, 3R, 4S)-N''-cyano-N-(6-nitro-3,4-dihydro-3-hydroxy-2-methyl-2-dimethoxymethyl-2H-benzopyran-4-yl)-N'-(4-nitrophenyl)guanidine] | > 1000
4 | COc1ccc(NC(=NC#N)N[C@H]2c3cc([N+](=O)[O-])ccc3O[C@@](C)(C(OC)OC)[C@@H]2O)cc1 [Example 8, (2R, 3R, 4S)-N''-cyano-N-(6-nitro-3,4-dihydro-3-hydroxy-2-methyl-2-dimethoxymethyl-2H-benzopyran-4-yl)-N'-(4-methoxyphenyl) guanidine] | > 1000
5 | COc1ccc(NC(=NC#N)N[C@@H]2c3cc([N+](=O)[O-])ccc3O[C@@](C)(C(OC)OC)[C@H]2O)cc1 [Example 9, (2R, 3S, 4R)-N''-cyano-N-(6-nitro-3,4-dihydro-3-hydroxy-2-methyl-2-dimethoxymethyl-2H-benzopyran-4-yl)-N'-(4-methoxyphenyl) guanidine] | > 1000
6 | COC(OC)[C@@]1(C)Oc2ccc([N+](=O)[O-])cc2[C@@H](NC(=NC#N)Nc2cccc(Cl)c2)[C@@H]1O [Example 13, (2S, 3S, 4R)-N''-cyano-N-(6-nitro-3,4-dihydro-3-hydroxy-2-methyl-2-dimethoxymethyl-2H-benzopyran-4-yl)-N'-(3-chlorophenyl)guanidine] | > 1000
7 | COC(OC)[C@@]1(C)Oc2ccc([N+](=O)[O-])cc2[C@H](NC(=NC#N)Nc2cccc(C(F)(F)F)c2)[C@H]1O [Example 14, (2S, 3R, 4S)-N''-cyano-N-(6-nitro-3,4-dihydro-3-hydroxy-2-methyl-2-dimethoxymethyl-2H-benzopyran-4-yl)-N'-(3-trifluoromethylphenyl)guanidine] | > 1000
8 | COC(OC)[C@]1(C)Oc2ccc([N+](=O)[O-])cc2[C@@H](NC(=NC#N)Nc2ccc(C)cc2)[C@@H]1O [Example 19, (2R, 3S, 4R)-N''-cyano-N-(6-nitro-3,4-dihydro-3-hydroxy-2-methyl-2-dimethoxymethyl-2H-benzopyran-4-yl)-N'-(4-methylphenyl)guanidine] | > 1000
9 | COC(OC)[C@]1(C)Oc2ccc([N+](=O)[O-])cc2[C@@H](NC(=NC#N)NCc2ccccc2)[C@@H]1O [Example 23, (2R, 3S, 4R)-N''-cyano-N-(6-nitro-3,4-dihydro-3-hydroxy-2-methyl-2-dimethoxymethyl-2H-benzopyran-4-yl)-N'-benzylguanidine] | > 1000
10 | COC(OC)[C@]1(C)Oc2ccccc2[C@H](NC(=NC#N)Nc2ccc(Cl)cc2)[C@H]1O [Example 26, (2R, 3R, 4S)-N''-cyano-N-(3,4-dihydro-3-hydroxy-2-methyl-2-dimethoxymethyl-2H-benzopyran-4-yl)-N'-(4-chlorophenyl)guanidine] | > 1000
11 | C[C@]1(CO)Oc2ccc([N+](=O)[O-])cc2[C@H](NC(=NC#N)Nc2ccc(Cl)cc2)[C@H]1O [Example 28, (2R, 3R, 4S)-N''-cyano-N-(6-nitro-3,4-dihydro-3-hydroxy-2-methyl-2-hydroxymethyl-2H-benzopyran-4-yl)-N'-(4-chlorophenyl)guanidine] | > 1000
12 | C[C@]1(CO)Oc2ccc([N+](=O)[O-])cc2[C@@H](NC(=NC#N)Nc2ccc(Cl)cc2)[C@@H]1O [Example 29, (2R, 3S, 4R)-N''-cyano-N-(6-nitro-3,4-dihydro-3-hydroxy-2-methyl-2-hydroxymethyl-2H-benzopyran-4-yl)-N'-(4-chlorophenyl)guanidine] | > 1000
13 | COC[C@@]1(C)Oc2ccc([N+](=O)[O-])cc2[C@H](NC(=NC#N)Nc2ccc(Cl)cc2)[C@H]1O [Example 30, (2R, 3R, 4S)-N''-cyano-N-(6-nitro-3,4-dihydro-3-hydroxy-2-methyl-2-methoxymethyl-2H-benzopyran-4-yl)-N'-(4-chlorophenyl)guanidine] | > 1000
14 | COC[C@@]1(C)Oc2ccc([N+](=O)[O-])cc2[C@@H](NC(=NC#N)Nc2ccc(Cl)cc2)[C@@H]1O [Example 31, (2R, 3S, 4R)-N''-cyano-N-(6-nitro-3,4-dihydro-3-hydroxy-2-methyl-2-methoxymethyl-2H-benzopyran-4-yl)-N'-(4-chlorophenyl)guanidine] | > 1000
15 | COC(OC)[C@@]1(C)Oc2ccc([N+](=O)[O-])cc2[C@@H](NC(=NC#N)Nc2ccccc2Cl)[C@@H]1O [Example 33, (2S, 3S, 4R)-N''-cyano-N-(6-nitro-3,4-dihydro-3-hydroxy-2-methyl-2-dimethoxymethyl-2H-benzopyran-4-yl)-N'-(2-chlorophenyl)guanidine] | > 1000
16 | COC(OC)[C@@]1(C)Oc2ccc([N+](=O)[O-])cc2[C@H](NC(=NC#N)Nc2ccccc2C(F)(F)F)[C@H]1O [Example 34, (2S, 3R, 4S)-N''-cyano-N-(6-nitro-3,4-dihydro-3-hydroxy-2-methyl-2-dimethoxymethyl-2H-benzopyran-4-yl)-N'-(2-trifluoromethylphenyl)guanidine] | > 1000
17 | COC(OC)[C@@]1(C)Oc2ccc([N+](=O)[O-])cc2[C@@H](NC(=NC#N)Nc2ccccc2C(F)(F)F)[C@@H]1O [Example 35, (2S, 3S, 4R)-N''-cyano-N-(6-nitro-3,4-dihydro-3-hydroxy-2-methyl-2-dimethoxymethyl-2H-benzopyran-4-yl)-N'-(2-trifluoromethylphenyl)guanidine] | > 1000
18 | COC(OC)[C@@]1(C)Oc2ccc([N+](=O)[O-])cc2[C@H](NC(=NC#N)NCc2ccccc2Cl)[C@H]1O [Example 36, (2S, 3R, 4S)-N''-cyano-N-(6 - nitro-3,4-dihydro-3-hydroxy-2-methyl-2-dimethoxymethyl-2H-benzopyran-4-yl)-N'-(2-chlorobenzyl)guanidine] | > 1000
19 | COC(OC)[C@@]1(C)Oc2ccc([N+](=O)[O-])cc2[C@@H](NC(=NC#N)NCc2ccccc2Cl)[C@@H]1O [Example 37, (2S, 3S, 4R)-N''-cyano-N-(6-nitro-3,4-dihydro-3-hydroxy-2-methyl-2-dimethoxymethyl-2H-benzopyran-4-yl)-N'-(2-chlorobenzyl)guanidine] | > 1000
20 | COC(OC)[C@]1(C)C=C(NC(=NC#N)NCc2ccccc2)c2cc([N+](=O)[O-])ccc2O1 [Example 39, (2S)-N''-cyano-N-(6-nitro-2-methyl-2-dimethoxymethyl-2H-benzopyran-4-yl)-N'-benzylguanidine] | > 1000
21 | COC(OC)[C@@]1(C)Oc2ccc(C#N)cc2[C@H](NC(=NC#N)Nc2ccc(Cl)cc2)[C@H]1O [Example 44, (2S, 3R, 4S)-N''-cyano-N-(6-cyano-3,4-dihydro-3-hydroxy-2-methyl-2-dimethoxymethyl-2H-benzopyran-4-yl)-N'-(4-chlorophenyl)guanidine] | > 1000
22 | COC(OC)[C@@]1(C)Oc2ccc(C#N)cc2[C@H](NC(=NC#N)NCc2ccccc2)[C@H]1O [Example 46, (2S, 3R, 4S)-N''-cyano-N-(6-cyano-3,4-dihydro-3-hydroxy-2-methyl-2-dimethoxymethyl-2H-benzopyran-4-yl)-N'-benzylguanidine] | > 1000
23 | COC(OC)[C@@]1(C)Oc2ccc(Br)cc2[C@@H](NC(=NC#N)NCc2ccccc2)[C@@H]1O [Example 47, (2S, 3S, 4R)-N''-cyano-N-(6-bromo-3,4-dihydro-3-hydroxy-2-methyl-2-dimethoxymethyl-2H-benzopyran-4-yl)-N'-benzylguanidine] | > 1000
24 | COc1ccc(CNC(=NC#N)N[C@@H]2c3cc([N+](=O)[O-])ccc3O[C@](C)(C(OC)OC)[C@H]2O)cc1OC [Example 48, (2S, 3S, 4R)-N''-cyano-N-(6-nitro-3,4-dihydro-3-hydroxy-2-methyl-2-dimethoxymethyl-2H-benzopyran-4-yl)-N'-(3,4-dimethoxybenzyl) guanidine] | > 1000
25 | COc1ccc(CNC(=NC#N)N[C@@H]2c3cc(N)ccc3O[C@](C)(C(OC)OC)[C@H]2O)cc1OC [Example 49, (2S, 3S, 4R)-N''-cyano-N-(6-amino-3,4-dihydro-3-hydroxy-2-methyl-2-dimethoxymethyl-2H-benzopyran-4-yl)-N'-(3,4-dimethoxybenzyl) guanidine] | > 1000
26 | COc1ccc(CNC(=NC#N)N[C@@H]2c3cc(N)ccc3O[C@](C)(C(OC)OC)[C@H]2O)cc1 [Example 51, (2S,3S,4R)-N''-cyano-N-(6-amino-3,4-dihydro-3-hydroxy-2-methyl-2-dimethoxymethyl-2H-benzopyran-4-yl)-N'-(4-methoxybenzyl) guanidine] | > 1000
27 | COC(OC)[C@@]1(C)Oc2ccc(N)cc2[C@H](/N=C(\NC#N)NCc2ccccc2)[C@H]1O [Example 57, (2S, 3R, 4S)-N''-cyano-N-(6-amino-3,4-dihydro-3-hydroxy-2-methyl-2-dimethoxymethyl-2H-benzopyran-4-yl)-N'-benzylguanidine] | > 1000
